Source: patent publication US7375107B2 (priority 2003, dated 2008)

What was measured:
[1] = molecular target: T1, epithelial sodium channels (ENaC), airway epithelial monolayers (Canis lupus familiaris, UniProt A0A8I3MKE6+A0A8I3Q679+Q95165); test: Sodium channel blocking activity: lumenal drug inhibition of airway epithelial sodium currents (short circuit current, ISC) in Ussing chambers; type: cell-based, canine; conditions: for Fold Amiloride** (PSA 4022 = 100): relative potency for PSA 4022 = 100 using EC50 from PSA 4022 in same run
T1 sequence (A0A8I3Q679 1-649): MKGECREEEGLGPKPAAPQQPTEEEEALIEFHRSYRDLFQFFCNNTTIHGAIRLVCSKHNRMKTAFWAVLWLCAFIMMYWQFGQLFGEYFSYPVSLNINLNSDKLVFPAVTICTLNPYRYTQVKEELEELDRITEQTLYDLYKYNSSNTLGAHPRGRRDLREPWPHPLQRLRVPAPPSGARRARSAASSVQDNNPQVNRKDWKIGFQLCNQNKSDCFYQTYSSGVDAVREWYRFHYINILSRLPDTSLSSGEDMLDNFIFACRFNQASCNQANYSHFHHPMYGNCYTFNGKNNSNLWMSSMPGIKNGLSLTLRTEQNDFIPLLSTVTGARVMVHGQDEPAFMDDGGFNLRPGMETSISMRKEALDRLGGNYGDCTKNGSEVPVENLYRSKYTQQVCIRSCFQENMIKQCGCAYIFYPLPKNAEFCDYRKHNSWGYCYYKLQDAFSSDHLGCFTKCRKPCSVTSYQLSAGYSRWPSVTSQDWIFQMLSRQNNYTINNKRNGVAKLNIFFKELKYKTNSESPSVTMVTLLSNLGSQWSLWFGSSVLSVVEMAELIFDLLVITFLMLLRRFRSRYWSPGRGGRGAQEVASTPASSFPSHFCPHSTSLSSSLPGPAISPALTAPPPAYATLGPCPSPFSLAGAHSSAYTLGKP
T1 sequence (Q95165 1-641): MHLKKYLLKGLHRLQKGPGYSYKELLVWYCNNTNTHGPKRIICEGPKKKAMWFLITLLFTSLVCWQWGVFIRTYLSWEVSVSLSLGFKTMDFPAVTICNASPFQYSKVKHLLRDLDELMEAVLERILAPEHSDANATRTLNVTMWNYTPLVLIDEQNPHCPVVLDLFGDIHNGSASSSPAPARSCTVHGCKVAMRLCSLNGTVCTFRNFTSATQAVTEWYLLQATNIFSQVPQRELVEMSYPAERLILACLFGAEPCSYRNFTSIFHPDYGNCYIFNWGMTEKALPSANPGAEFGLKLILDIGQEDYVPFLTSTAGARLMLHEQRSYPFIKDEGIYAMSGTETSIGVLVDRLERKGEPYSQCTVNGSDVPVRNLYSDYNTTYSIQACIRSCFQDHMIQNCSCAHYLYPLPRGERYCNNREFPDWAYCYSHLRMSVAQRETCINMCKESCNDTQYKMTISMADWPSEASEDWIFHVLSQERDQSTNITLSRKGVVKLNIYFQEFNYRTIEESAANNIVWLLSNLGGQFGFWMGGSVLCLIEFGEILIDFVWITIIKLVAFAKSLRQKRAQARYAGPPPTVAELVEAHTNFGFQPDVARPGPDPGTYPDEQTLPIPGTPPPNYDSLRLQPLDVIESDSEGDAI
T1 sequence (A0A8I3MKE6 1-646): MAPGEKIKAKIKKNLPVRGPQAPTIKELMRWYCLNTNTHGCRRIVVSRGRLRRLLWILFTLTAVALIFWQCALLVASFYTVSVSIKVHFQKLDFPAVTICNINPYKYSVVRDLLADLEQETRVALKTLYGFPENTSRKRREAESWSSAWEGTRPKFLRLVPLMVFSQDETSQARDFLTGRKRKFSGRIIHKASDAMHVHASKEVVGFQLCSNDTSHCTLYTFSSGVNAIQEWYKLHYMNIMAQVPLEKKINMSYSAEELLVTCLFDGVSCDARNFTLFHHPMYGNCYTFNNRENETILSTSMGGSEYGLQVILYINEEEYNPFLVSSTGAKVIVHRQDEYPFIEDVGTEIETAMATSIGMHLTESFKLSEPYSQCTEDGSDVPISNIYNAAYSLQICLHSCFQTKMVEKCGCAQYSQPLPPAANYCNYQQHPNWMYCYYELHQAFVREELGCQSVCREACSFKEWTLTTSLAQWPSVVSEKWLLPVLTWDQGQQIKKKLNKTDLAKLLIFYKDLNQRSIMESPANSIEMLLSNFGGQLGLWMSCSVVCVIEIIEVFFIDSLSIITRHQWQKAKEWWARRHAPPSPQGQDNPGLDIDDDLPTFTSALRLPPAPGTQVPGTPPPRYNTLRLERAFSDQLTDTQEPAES
Method: One assay used to assess mechanism of action and/or potency of the compounds of the present invention involves the determination of lumenal drug inhibition of airway epithelial sodium currents measured under short circuit current (ISC) using airway epithelial monolayers mounted in Ussing chambers. Cells obtained from freshly excised human, dog, sheep or rodent airways are seeded onto porous 0.4 micron Snapwell™ Inserts (CoStar), cultured at air-liquid interface (ALI) conditions in hormonally defined media, and assayed for sodium transport activity (ISC) while bathed in Krebs Bicarbonate Ringer (KBR) in Using chambers. All test drug additions are to the lumenal bath with half-log dose addition protocols (from 1×10^−11 M to 3×10^−5 M), and the cumulative change in ISC (inhibition) recorded. All drugs are prepared in dimethyl sulfoxide as stock solutions at a concentration of 1×10^−2 M and stored at −20° C. Eight preparations are typically run in parallel; two preparations per run incorporate amiloride and/or benzamil as positive controls. After the maximal concentration (5×10^−5 M) is administered, the lumenal bath is exchanged three times with fresh drug-free KBR solution, and the resultant ISC measured after each wash for approximately 5 minutes in duration. Reversibility is defined as the percent return to the baseline value for sodium current after the third wash. All data from the voltage clamps are collected via a computer interface and analyzed off-line.
Dose-effect relationships for all compounds are considered and analyzed by the Prism 3.0 program. IC50 values, maximal effective concentrations, and reversibility are calculated and compared to amiloride and benzamil as positive controls.
Treatment Protocol (Assessment of Activity at t-4 hours): The following variation of the standard protocol was used to assess the durability of response following a single exposure to vehicle control (distilled water), positive control compounds (amiloride or benzamil), or investigational agents. At time zero, vehicle control (distilled water), positive control (amiloride), or investigational compounds were aerosolized from a 4 ml volume using a Pari LC JetPlus nebulizer to free-breathing animals. The nebulizer was driven by compressed air with a flow of 8 liters per minute. The time to deliver the solution was 10 to 12 minutes. Animals were restrained in an upright position in a specialized body harness for 4 hours. At the end of the 4-hour period animals received a single dose of aerosolized ^99mTc-Human serum albumin (3.1 mg/ml; containing approximately 20 mCi) from a Raindrop Nebulizer. Animals were extubated immediately following delivery of the total dose of radio-tracer. A baseline deposition image was obtained immediately after radio-aerosol administration. Serial images of the lung were obtained at 15-minute intervals during the first 2 hours after administration of the radio-tracer (representing hours 4 through 6 after drug administration) and hourly for the next 2 hours after dosing for a total observation period of 4 hours. A washout period of at least 7 days separated dosing sessions with different experimental agents. Statistics: Data were analyzed using SYSTAT for Windows, version 5. Data were analyzed using a two-way repeated ANOVA (to assess overall effects), followed by a paried t-test to identify differences between specific pairs. Significance was accepted when P was less than or equal to 0.05. […] The compounds can be further tested for potency in canine bronchial epithelia using the in vitro assay described above. The results for the compounds of the present invention are reported as fold-enhancement values relative to amiloride.
Sodium Channel Blocking Activity of Selected Alaphatic Pyrazinoylguanidines.

`CC(C)(C)OC(=O)N=C(NCCCOCCCNC(=N)NC(=O)c1nc(Cl)c(N)nc1N)NC(=O)OC(C)(C)C` showed a melting point of 89 to 93 °C.
In the case of `N=C(NCCCCCCCN)NC(=O)c1nc(Cl)c(N)nc1N` [compound 18705], the “Fold Amiloride** (PSA 4022 = 100)” value [1] is reported as 8 ± 2 (n = 4).
With `N=C(NCCCCCCN)NC(=O)c1nc(Cl)c(N)nc1N` [compound 18706] the “Fold Amiloride** (PSA 4022 = 100)” value [1] was 4 ± 1 (n = 4).
In the case of `N=C(N)NCCCCCCCCCNC(=N)NC(=O)c1nc(Cl)c(N)nc1N` [compound 19006], the “Fold Amiloride** (PSA 4022 = 100)” value [1] is reported as 11 ± 2 (n = 3).
For `N=C(N)NCCCCCCCNC(=N)NC(=O)c1nc(Cl)c(N)nc1N` [compound 19155], the “Fold Amiloride** (PSA 4022 = 100)” value [1] was 8 ± 7 (n = 3).
In the case of `CC(C)(C)OC(=O)NCCCCCCCCNC(=N)NC(=O)c1nc(Cl)c(N)nc1N` [compound 19156], the “Fold Amiloride** (PSA 4022 = 100)” value [1] is reported as 18 ± 2 (n = 2).
In the case of `CC(C)(C)OC(=O)NCCCOCCCNC(=N)NC(=O)c1nc(Cl)c(N)nc1N` [compound 19333], the “Fold Amiloride** (PSA 4022 = 100)” value [1] is reported as 7 ± 2 (n = 4).
With `N=C(NCCCCCCCCCN)NC(=O)c1nc(Cl)c(N)nc1N` [compound 19335] the “Fold Amiloride** (PSA 4022 = 100)” value [1] was 19 ± 7 (n = 4) and the EC50 ([1]; sodium channel blocking activity, short circuit current in airway epithelial monolayers) was 36 ± 7 nM.
In the case of `N=C(NCCCCCCCCN)NC(=O)c1nc(Cl)c(N)nc1N` [compound 19336], the “Fold Amiloride** (PSA 4022 = 100)” value [1] is reported as 12 ± 3 (n = 3).
For `CC(C)(C)OC(=O)NCCCCCCCCCNC(=N)NC(=O)c1nc(Cl)c(N)nc1N` [compound 19484], the “Fold Amiloride** (PSA 4022 = 100)” value [1] was 12 (n = 1).
For `N=C(NCCCCCCCCCCN)NC(=O)c1nc(Cl)c(N)nc1N` [compound 19487], the “Fold Amiloride** (PSA 4022 = 100)” value [1] was 37 ± 1 (n = 4).
With `N=C(N)NCCCCCCCCNC(=N)NC(=O)c1nc(Cl)c(N)nc1N` [compound 19604] the “Fold Amiloride** (PSA 4022 = 100)” value [1] was 63 ± 61 (n = 4).
With `N=C(N)NCCCCCCCCCCNC(=N)NC(=O)c1nc(Cl)c(N)nc1N` [compound 23608] the “Fold Amiloride** (PSA 4022 = 100)” value [1] was 41 ± 29 (n = 2).
For `N=C(NCCCCCCCCCCCCN)NC(=O)c1nc(Cl)c(N)nc1N` [compound 23609], the “Fold Amiloride** (PSA 4022 = 100)” value [1] was 66 ± 36 (n = 4).
In the case of `N=C(NCCCCCCCCCCCN)NC(=O)c1nc(Cl)c(N)nc1N` [compound 23682], the “Fold Amiloride** (PSA 4022 = 100)” value [1] is reported as 51 ± 15 (n = 3).
With `N=C(N)NCCCCCCCCCCCCNC(=N)NC(=O)c1nc(Cl)c(N)nc1N` [compound 23683] the “Fold Amiloride** (PSA 4022 = 100)” value [1] was 68 ± 48 (n = 6).
For `CC(C)(C)OC(=O)NCCCCCCCCCCCCNC(=N)NC(=O)c1nc(Cl)c(N)nc1N` [compound 23776], the “Fold Amiloride** (PSA 4022 = 100)” value [1] was 7 (n = 1).
In the case of `N=C(N)NCCCCCCCCCCCNC(=N)NC(=O)c1nc(Cl)c(N)nc1N` [compound 23991], the “Fold Amiloride** (PSA 4022 = 100)” value [1] is reported as 20 ± 12 (n = 4).
